Test results reported in PubChem BioAssay (NCI).
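Five compound concentrations were applied to cells in 96-well plates for 48 hours; endpoints were derived by simple linear interpolation of the resulting dose-response curve. GI50 is the concentration that inhibits growth by half. At the TGI there is no net growth.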

Experiments:
Assay in all cases: DTP human tumour cell line panel, 48 h
786-0 renal = tested on: 786-0 renal
A498 renal = tested on: A498 renal
A549 NSCLC = tested on: A549 NSCLC
ACHN renal = tested on: ACHN renal
BT-549 breast = tested on: BT-549 breast
CAKI-1 renal = tested on: CAKI-1 renal
CCRF-CEM leukemia = tested on: CCRF-CEM leukemia
COLO 205 colon = tested on: COLO 205 colon
DU-145 prostate = tested on: DU-145 prostate
EKVX NSCLC = tested on: EKVX NSCLC
HCC-2998 colon = tested on: HCC-2998 colon
HCT-116 colon = tested on: HCT-116 colon
HCT-15 colon = tested on: HCT-15 colon
HL-60(TB) leukemia = tested on: HL-60(TB) leukemia
HOP-62 NSCLC = tested on: HOP-62 NSCLC
HOP-92 NSCLC = tested on: HOP-92 NSCLC
HS 578T breast = tested on: HS 578T breast
HT29 colon = tested on: HT29 colon
K-562 leukemia = tested on: K-562 leukemia
KM12 colon = tested on: KM12 colon
LOX IMVI melanoma = tested on: LOX IMVI melanoma
M14 melanoma = tested on: M14 melanoma
MALME-3M melanoma = tested on: MALME-3M melanoma
MCF7 breast = tested on: MCF7 breast
MDA-MB-231 breast = tested on: MDA-MB-231 breast
MDA-MB-435 = tested on: MDA-MB-435
MOLT-4 leukemia = tested on: MOLT-4 leukemia
NCI-H226 lung = tested on: NCI-H226 lung
NCI-H23 lung = tested on: NCI-H23 lung
NCI-H460 lung = tested on: NCI-H460 lung
NCI-H522 lung = tested on: NCI-H522 lung
NCI/ADR-RES ovarian = tested on: NCI/ADR-RES ovarian
OVCAR-3 ovarian = tested on: OVCAR-3 ovarian
OVCAR-4 ovarian = tested on: OVCAR-4 ovarian
OVCAR-5 ovarian = tested on: OVCAR-5 ovarian
OVCAR-8 ovarian = tested on: OVCAR-8 ovarian
PC-3 prostate = tested on: PC-3 prostate
RPMI-8226 leukemia = tested on: RPMI-8226 leukemia
RXF 393 renal = tested on: RXF 393 renal
SF-268 CNS = tested on: SF-268 CNS
SF-295 CNS = tested on: SF-295 CNS
SF-539 CNS = tested on: SF-539 CNS
SK-MEL-2 melanoma = tested on: SK-MEL-2 melanoma
SK-MEL-28 melanoma = tested on: SK-MEL-28 melanoma
SK-MEL-5 melanoma = tested on: SK-MEL-5 melanoma
SK-OV-3 ovarian = tested on: SK-OV-3 ovarian
SN12C renal = tested on: SN12C renal
SNB-19 CNS = tested on: SNB-19 CNS
SNB-75 CNS = tested on: SNB-75 CNS
SR leukemia = tested on: SR leukemia
SW-620 colon = tested on: SW-620 colon
T-47D breast = tested on: T-47D breast
TK-10 renal = tested on: TK-10 renal
U251 CNS = tested on: U251 CNS
UACC-62 melanoma = tested on: UACC-62 melanoma
UO-31 renal = tested on: UO-31 renal

Cc1ccc(N(CC(=O)Nc2ccc(S(=O)(=O)NC3CCN(C)CC3)cc2)S(=O)(=O)c2ccc(Cl)cc2)cc1
GI50 (786-0 renal): 2.08 µM | TGI (786-0 renal): 5.23 µM | GI50 (A498 renal): 13.4 µM | TGI (A498 renal): 28.8 µM | GI50 (A549 NSCLC): 5 µM | TGI (A549 NSCLC): 16.3 µM | GI50 (ACHN renal): 12 µM | TGI (ACHN renal): 27.6 µM | GI50 (BT-549 breast): 12.6 µM | TGI (BT-549 breast): 27.8 µM | GI50 (CAKI-1 renal): 14.7 µM | TGI (CAKI-1 renal): 28.4 µM | GI50 (CCRF-CEM leukemia): 2.94 µM | TGI (CCRF-CEM leukemia): 11.1 µM | GI50 (COLO 205 colon): 1.89 µM | TGI (COLO 205 colon): 3.89 µM | GI50 (DU-145 prostate): 3.27 µM | TGI (DU-145 prostate): 11.2 µM | GI50 (EKVX NSCLC): 5.09 µM | TGI (EKVX NSCLC): 19.8 µM | GI50 (HCC-2998 colon): 2.1 µM | TGI (HCC-2998 colon): 5.25 µM | GI50 (HCT-116 colon): 1.69 µM | TGI (HCT-116 colon): 3.2 µM | GI50 (HCT-15 colon): 11.9 µM | TGI (HCT-15 colon): 27.5 µM | GI50 (HL-60(TB) leukemia): 2.21 µM | TGI (HL-60(TB) leukemia): 4.93 µM | GI50 (HOP-62 NSCLC): 3.96 µM | TGI (HOP-62 NSCLC): 14.2 µM | GI50 (HOP-92 NSCLC): 1.86 µM | TGI (HOP-92 NSCLC): 8.64 µM | GI50 (HS 578T breast): 2.27 µM | TGI (HS 578T breast): 6.74 µM | GI50 (HT29 colon): 2.88 µM | TGI (HT29 colon): 7.5 µM | GI50 (K-562 leukemia): 2.23 µM | TGI (K-562 leukemia): 5 µM | GI50 (KM12 colon): 2.85 µM | TGI (KM12 colon): 8.25 µM | GI50 (LOX IMVI melanoma): 1.89 µM | TGI (LOX IMVI melanoma): 3.76 µM | GI50 (M14 melanoma): 1.79 µM | TGI (M14 melanoma): 3.42 µM | GI50 (MALME-3M melanoma): 1.72 µM | TGI (MALME-3M melanoma): 3.65 µM | GI50 (MCF7 breast): 3.02 µM | TGI (MCF7 breast): 13.1 µM | GI50 (MDA-MB-231 breast): 1.87 µM | TGI (MDA-MB-231 breast): 4.68 µM | GI50 (MDA-MB-435): 1.86 µM | TGI (MDA-MB-435): 3.57 µM | GI50 (MOLT-4 leukemia): 2.97 µM | TGI (MOLT-4 leukemia): 10.1 µM | GI50 (NCI-H226 lung): 5.37 µM | TGI (NCI-H226 lung): 23.4 µM | GI50 (NCI-H23 lung): 10.1 µM | TGI (NCI-H23 lung): 24.5 µM | GI50 (NCI-H460 lung): 2.02 µM | TGI (NCI-H460 lung): 4 µM | GI50 (NCI-H522 lung): 2.24 µM | TGI (NCI-H522 lung): 4.62 µM | GI50 (NCI/ADR-RES ovarian): 16.8 µM | TGI (NCI/ADR-RES ovarian): 35.5 µM | GI50 (OVCAR-3 ovarian): 2.99 µM | TGI (OVCAR-3 ovarian): 8.77 µM | GI50 (OVCAR-4 ovarian): 5.13 µM | TGI (OVCAR-4 ovarian): 19.7 µM | GI50 (OVCAR-5 ovarian): 4.04 µM | TGI (OVCAR-5 ovarian): 17.1 µM | GI50 (OVCAR-8 ovarian): 3.61 µM | TGI (OVCAR-8 ovarian): 12.1 µM | GI50 (PC-3 prostate): 2.86 µM | TGI (PC-3 prostate): 10.7 µM | GI50 (RPMI-8226 leukemia): 2.71 µM | TGI (RPMI-8226 leukemia): 7.89 µM | GI50 (RXF 393 renal): 1.65 µM | TGI (RXF 393 renal): 3.84 µM | GI50 (SF-268 CNS): 2.67 µM | TGI (SF-268 CNS): 8.26 µM | GI50 (SF-295 CNS): 2.12 µM | TGI (SF-295 CNS): 5.49 µM | GI50 (SF-539 CNS): 1.85 µM | TGI (SF-539 CNS): 3.52 µM | GI50 (SK-MEL-2 melanoma): 2.15 µM | TGI (SK-MEL-2 melanoma): 4.86 µM | GI50 (SK-MEL-28 melanoma): 1.95 µM | TGI (SK-MEL-28 melanoma): 4.18 µM | GI50 (SK-MEL-5 melanoma): 1.83 µM | TGI (SK-MEL-5 melanoma): 3.29 µM | GI50 (SK-OV-3 ovarian): 5.45 µM | TGI (SK-OV-3 ovarian): 17.8 µM | GI50 (SN12C renal): 3.05 µM | TGI (SN12C renal): 13.1 µM | GI50 (SNB-19 CNS): 4.27 µM | TGI (SNB-19 CNS): 21.5 µM | GI50 (SNB-75 CNS): 2.95 µM | TGI (SNB-75 CNS): 15.7 µM | GI50 (SR leukemia): 2.33 µM | TGI (SR leukemia): 7.46 µM | GI50 (SW-620 colon): 1.84 µM | TGI (SW-620 colon): 3.61 µM | GI50 (T-47D breast): 2.03 µM | TGI (T-47D breast): 4.47 µM | GI50 (TK-10 renal): 13.7 µM | TGI (TK-10 renal): 27 µM | GI50 (U251 CNS): 2.35 µM | TGI (U251 CNS): 5.83 µM | GI50 (UACC-62 melanoma): 1.74 µM | TGI (UACC-62 melanoma): 3.59 µM | GI50 (UO-31 renal): 14.7 µM | TGI (UO-31 renal): 30.3 µM
